PubChem BioAssay (NCI)
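These data come from cells grown in 96-well plates and exposed to compound for 48 hours at five concentrations. At the TGI there is no net growth.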

Tests used:
Assay in all cases: DTP human tumour cell line panel, 48 h
K-562 leukemia = tested on: K-562 leukemia
SK-OV-3 ovarian = tested on: SK-OV-3 ovarian
MDA-N = tested on: MDA-N
OVCAR-3 ovarian = tested on: OVCAR-3 ovarian
OVCAR-8 ovarian = tested on: OVCAR-8 ovarian
NCI-H460 lung = tested on: NCI-H460 lung
PC-3 prostate = tested on: PC-3 prostate
SN12C renal = tested on: SN12C renal
SR leukemia = tested on: SR leukemia
KM12 colon = tested on: KM12 colon
NCI-H23 lung = tested on: NCI-H23 lung
EKVX NSCLC = tested on: EKVX NSCLC
RPMI-8226 leukemia = tested on: RPMI-8226 leukemia
NCI-H226 lung = tested on: NCI-H226 lung
HOP-92 NSCLC = tested on: HOP-92 NSCLC
MDA-MB-435 = tested on: MDA-MB-435
HCT-116 colon = tested on: HCT-116 colon
UACC-62 melanoma = tested on: UACC-62 melanoma
NCI-H522 lung = tested on: NCI-H522 lung

SMILES	TGI (K-562 leukemia) [µM]	TGI (SK-OV-3 ovarian) [µM]	TGI (MDA-N) [µM]	TGI (OVCAR-3 ovarian) [µM]	TGI (OVCAR-8 ovarian) [µM]	TGI (NCI-H460 lung) [µM]	TGI (PC-3 prostate) [µM]	TGI (SN12C renal) [µM]	TGI (SR leukemia) [µM]	TGI (KM12 colon) [µM]	TGI (NCI-H23 lung) [µM]	TGI (EKVX NSCLC) [µM]	TGI (RPMI-8226 leukemia) [µM]	TGI (NCI-H226 lung) [µM]	TGI (HOP-92 NSCLC) [µM]	TGI (MDA-MB-435) [µM]	TGI (HCT-116 colon) [µM]	TGI (UACC-62 melanoma) [µM]	TGI (NCI-H522 lung) [µM]
COC(=O)/C=C(/C(=O)OC)c1cc2ccc3c([nH]c4ccccc43)c(C)c-2c1	7.09	36.9	9.9	12	25.2	18.6	14.2	27	8.59	36.5	24.7	24.2	25.2	19.8	5.43	25.1	16.3	17.8	5.83
C=CCc1cc(C=C(C#N)C#N)cc(OC)c1O	> 100	> 100	> 100	> 100	> 100	> 100	> 100		> 100	> 100	> 100	> 100	> 100	> 100	> 100	> 100	> 100	> 100	> 100
CCOC(=O)NC(C(=O)OCC)(N1CCN(c2cc3c(cc2F)c(=O)c(C(=O)O)cn3CC)CC1)C(F)(F)F (configuration not stated)	> 100	> 100	> 100	> 100	34	> 100	> 100	> 100	> 100	> 100	> 100	56.9	> 100	> 100	> 100	> 100	> 100	> 100	> 100
Cc1cc(S(=O)(=O)NC2=NC(c3ccccc3)c3cc(Cl)ccc3N2)c(S)cc1Cl (configuration not stated)	> 100	> 100	> 100	> 100	> 100	> 100	> 100	> 100	> 100	> 100	> 100	> 100	> 100	> 100	> 100	> 100	> 100	> 100	> 100
CO/C(=C/C(=O)C(Cl)(Cl)Cl)CC/C(=C\C(=O)C(Cl)(Cl)Cl)OC	> 100	87.3	66	67.7	56	99.3	87.7	54.5	51.7	98.9	62.7	59.7	70.9		40.1	53.4	42.2	46.8	57.5
NNC1=N/C(=C\c2ccco2)C(=O)N1	> 100	> 100	> 100	> 100	> 100		> 100	> 100	> 100	> 100	> 100	> 100	> 100	> 100		> 100	> 100	> 100	> 100
CC1(C)OCC(C2OC(OC(=O)c3ccc([N+](=O)[O-])cc3)C3OC(C)(C)OC23)O1 (configuration not stated)	> 100	> 100	> 100	> 100	> 100	> 100	> 100	> 100	> 100	> 100	> 100	> 100	> 100	> 100		> 100	> 100	> 100	> 100
S=C(N/N=C/c1ccccn1)Nc1ccc(Cl)cc1		10.5	> 100	> 100	> 42.8	> 100	> 100	> 100	> 100	> 100	> 100	> 100	> 26.4	3.33	> 57.6	> 100	> 88.5	1.51	0.18
CCOC(=O)C(=[N+]=[N-])C(=O)CN1C(=O)C2CC(C)=C(C)CC2C1O (configuration not stated)	> 100		> 100	> 100	> 100	> 100	> 100		> 100	> 100	> 100	> 100	> 100	> 100		> 100	> 100	> 100	> 100
Cc1ccc(C2SCC(=O)N2c2ccc(-c3ccc(-n4c(-c5ccccc5)nc5ccccc5c4=O)cc3)cc2)cc1 (configuration not stated)	> 100	> 100	> 100	> 100	> 100	> 100	> 100	> 100	> 100	> 100	> 100	> 100	> 100		> 100	> 100		> 100	> 100
CSc1c(C(=O)Nc2ccc(C)cc2)c(N)n(N)c(=O)c1C#N	> 100	> 100	> 100	> 100	> 100	> 100	> 100	> 100	> 100	> 100	> 100	> 100	> 100	> 100		> 100	> 100	> 100	> 100
